“Also recorded” adds a separate entry of the source. Marks after values point to notes of the source that are not given here.
Tests used:
human PBMCs = assay: Human PBMC cytokine response assay (IFN-γ and IFN-α in cell-free medium by ELISA), with or without cPLGA; format: cell-based;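 for IFN-α (pg/ml) mean: 20 µg/mL compound for 24 hours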;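 for IFN-γ (pg/ml) mean: 20 µg/mL compound for 24 hours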
CD19+ B cells = assay: Human B cell proliferation assay (3H-thymidine incorporation); details: 2 μg/ml; for cpm1 / cpm2 / cpm3 / mean cpm / mean of both: B cells
[1] = test system: hepatitis B surface antigen (HBsAg); details: in vivo
PBMCs = assay: Human PBMC proliferation assay (3H-thymidine incorporation); format: cell-based; details: Experiment A; for mean cpm: 2 μg/ml
[2] = donor 28066, 20 ug/ml, 24 h, + PLGA = premixed with 100 μg/ml cPLGA
[3] = donor 28067, 20 ug/ml, 24 h, + PLGA = premixed with 100 μg/ml cPLGA
[4] = donor 28068, 20 ug/ml, 24 h, + PLGA = premixed with 100 μg/ml cPLGA
[5] = mean of Donors 1-2, 20 μg/ml, 24 h
[6] = mean of Donors 9-12, 20 μg/ml, 24 h
[7] = mean of donors 110, 112, 119, 120, Table 14
[8] = mean of donors 28065-28068, 20 ug/ml, 24 h, + PLGA = premixed with 100 μg/ml cPLGA
[9] = mean of donors 28185-28188, Table 15

## 5′-TCGTCGA-3′-HEG-5′-ACGTTCG-3′-HEG-5′-AGATGAT-3′ [Compound C-8]
Human PBMCs; Donor 1, 20 μg/ml, 24 h
  IFN-α (pg/ml) Donor 1: 1609 pg/mL
  IFN-γ (pg/ml) Donor 1: 1916 pg/mL
Human PBMCs; Donor 2, 20 μg/ml, 24 h
  IFN-α (pg/ml) Donor 2: 44 pg/mL
  IFN-γ (pg/ml) Donor 2: 696 pg/mL
Human PBMCs; Donor 9, 20 μg/ml, 24 h
  IFN-α Donor 9: 58
  IFN-γ Donor 9: 312
Human PBMCs; Donor 10, 20 μg/ml, 24 h
  IFN-α Donor 10: 30
  IFN-γ Donor 10: 35
Human PBMCs; Donor 11, 20 μg/ml, 24 h
  IFN-α Donor 11: 18
  IFN-γ Donor 11: 31
Human PBMCs; Donor 12, 20 μg/ml, 24 h
  IFN-α Donor 12: 49
  IFN-γ Donor 12: 28
Human PBMCs; Table 9, donor 28089
  IFN-α: 21 pg/mL
  IFN-γ: 62 pg/mL
Human PBMCs; Table 9, donor 28090
  IFN-α: 124 pg/mL
  IFN-γ: 52 pg/mL
Human PBMCs; Table 9, donor 28098
  IFN-α: 314 pg/mL
  IFN-γ: 205 pg/mL
Human PBMCs; Table 9, donor 28099
  IFN-α: 362 pg/mL
  IFN-γ: 116 pg/mL
Human PBMCs; Table 9, mean of donors
  IFN-α mean: 205 pg/mL
  IFN-γ mean: 109 pg/mL
Human PBMCs; Table 10, donor 28042
  IFN-α: 20 pg/mL
  IFN-γ: 468 pg/mL
Human PBMCs; Table 10, donor 28043
  IFN-α: 51 pg/mL
  IFN-γ: 939 pg/mL
Human PBMCs; Table 10, donor 28044
  IFN-α: 32 pg/mL
  IFN-γ: 1000 pg/mL
Human PBMCs; Table 10, donor 28045
  IFN-α: 5 pg/mL
  IFN-γ: 234 pg/mL
Human PBMCs; Table 10, mean of donors
  IFN-α mean: 27 pg/mL
  IFN-γ mean: 660 pg/mL
Human PBMCs; Table 11, donor 28042
  IFN-α: 78 pg/mL
  IFN-γ: 623 pg/mL
Human PBMCs; Table 11, donor 28043
  IFN-α: 25 pg/mL
  IFN-γ: 753 pg/mL
Human PBMCs; Table 11, donor 28044
  IFN-α: 52 pg/mL
  IFN-γ: 646 pg/mL
Human PBMCs; Table 11, donor 28045
  IFN-α: 256 pg/mL
  IFN-γ: 604 pg/mL
Human PBMCs; Table 11, mean of donors
  IFN-α mean: 103 pg/mL
  IFN-γ mean: 656 pg/mL
Human PBMCs; Table 13, donor 28156
  IFN-α: 102 pg/mL
  IFN-γ: 1612 pg/mL
Human PBMCs; Table 13, donor 28157
  IFN-α: 755 pg/mL
  IFN-γ: 742 pg/mL
Human PBMCs; Table 13, donor 28158
  IFN-α: 61 pg/mL
  IFN-γ: 340 pg/mL
Human PBMCs; Table 13, donor 28159
  IFN-α: 160 pg/mL
  IFN-γ: 197 pg/mL
Human PBMCs; Table 13, mean of donors
  IFN-α mean: 270 pg/mL
  IFN-γ mean: 723 pg/mL
Human PBMCs; donor 110, Table 14
  IFN-α: 196 pg/mL
  IFN-γ: 1152 pg/mL
Human PBMCs; donor 112, Table 14
  IFN-α: 30 pg/mL
  IFN-γ: 540 pg/mL
Human PBMCs; donor 119, Table 14
  IFN-α: 264 pg/mL
  IFN-γ: 136 pg/mL
Human PBMCs; donor 120, Table 14
  IFN-α: 42 pg/mL
  IFN-γ: 48 pg/mL
Human PBMCs; donor 28065 (high background), 20 ug/ml, 24 h, + PLGA = premixed with 100 μg/ml cPLGA, 1000 = outside assay limits
  IFN-γ (pg/ml) 28065: 1000 pg/mL
Human PBMCs; donor 28065, 20 ug/ml, 24 h, + PLGA = premixed with 100 μg/ml cPLGA
  IFN-α (pg/ml) 28065: 123 pg/mL
Human PBMCs; [2]
  IFN-α (pg/ml) 28066: 6 pg/mL
  IFN-γ (pg/ml) 28066: 19 pg/mL
Human PBMCs; [3]
  IFN-α (pg/ml) 28067: 96 pg/mL
  IFN-γ (pg/ml) 28067: 56 pg/mL
Human PBMCs; [4]
  IFN-α (pg/ml) 28068: 358 pg/mL
  IFN-γ (pg/ml) 28068: 419 pg/mL
Human PBMCs; donor 28185, Table 15
  IFN-a: 196 pg/mL
  IFN-g: 154 pg/mL
Human PBMCs; donor 28186, Table 15
  IFN-a: 31 pg/mL
  IFN-g: 25 pg/mL
Human PBMCs; donor 28187, Table 15
  IFN-a: 202 pg/mL
  IFN-g: 123 pg/mL
Human PBMCs; donor 28188, Table 15
  IFN-a: 4 pg/mL
  IFN-g: 9 pg/mL
Human PBMCs; [5]
  IFN-α (pg/ml) mean: 827 pg/mL
  IFN-γ (pg/ml) mean: 1306 pg/mL
Human PBMCs; [6]
  IFN-α mean: 39
  IFN-γ mean: 102
Human PBMCs; [7]
  IFN-α (pg/ml) mean: 133 pg/mL
  IFN-γ (pg/ml) mean: 469 pg/mL
Human PBMCs; [8]
  IFN-α (pg/ml) mean: 146 pg/mL
  IFN-γ (pg/ml) mean: 373 pg/mL
Human PBMCs; [9]
  IFN-a (pg/ml) mean: 108 pg/mL
  IFN-g (pg/ml) mean: 78 pg/mL
Human PBMCs; mean ×2, Table 15
  IFN-a (pg/ml) ×2: 217 pg/mL
Human PBMCs; mean ×4, Table 15
  IFN-g (pg/ml) ×4: 311 pg/mL
Human PBMCs; used alone (no cPLGA)
  immunomodulatory activity (IFN-γ / IFN-α secretion), in words: more active than other CG-containing CICs; also recorded: most active CICs
CD19+ B cells; 48 h plus 8 h 3H-thymidine pulse
  B cell proliferation, in words: cause B cells to proliferate
CD19+ B cells; Donor 146, Experiment A
  cpm1: 23815 cpm
  cpm2: 30066 cpm
  cpm3: 22969 cpm
CD19+ B cells; Donor 146 mean, Experiment A
  mean cpm: 25617 cpm
CD19+ B cells; Donor 147, Experiment A
  cpm1: 20914 cpm
  cpm2: 22370 cpm
  cpm3: 23659 cpm
CD19+ B cells; Donor 147 mean, Experiment A
  mean cpm: 22314 cpm
CD19+ B cells; donor 121, Experiment B
  cpm1: 2604 cpm
  cpm2: 12078 cpm
  cpm3: 17696 cpm
CD19+ B cells; donor 121 mean, Experiment B
  mean cpm: 10793 cpm
CD19+ B cells; donor 194, Experiment B
  cpm1: 9333 cpm
  cpm2: 9391 cpm
  cpm3: 7602 cpm
CD19+ B cells; donor 194 mean, Experiment B
  mean cpm: 8775 cpm
CD19+ B cells; mean of Donors 146 and 147, Experiment A
  mean of both: 23966 cpm
CD19+ B cells; mean of donors 121 and 194, Experiment B
  mean of both: 9784 cpm
[1]
  Anti-HBsAg (mIU/ml) post-first, Mean: 22 mIU/ml
  Anti-HBsAg (mIU/ml) post-second, Mean: 9294** mIU/ml
PBMCs; Donor 146, 2 μg/ml
  cpm1: 47202 cpm
  cpm2: 40790 cpm
  cpm3: 44811 cpm
PBMCs; Donor 146 mean
  mean cpm: 44268 cpm
PBMCs; Donor 147, 2 μg/ml
  cpm1: 38845 cpm
  cpm2: 39733 cpm
  cpm3: 27981 cpm
PBMCs; Donor 147 mean
  mean cpm: 35520 cpm
PBMCs; mean of Donors 146 and 147, 2 μg/ml
  mean of both: 39894 cpm
